From patent US11891634B2, “PDE5A destabilizing domains” (The Board of Trustees of the Leland Stanford Junior …, priority 2017, dated 2024)

What was measured:
[1] = tested on: NIH3T3 cells expressing AcGFP-PDE5A fusions; assay: FACS analysis of C-terminal PDE5A mutants (AcGFP-PDE5A fusions), Sildenafil vs vehicle; assay type: cell-based, mouse; conditions: for Mean Fluorescence intensity: NIH3T3; for Stabilization ratio: Table 4, Sildenafil 10 μM vs vehicle alone
Method: The NIH3T3 cell line was cultured in DMEM supplemented with 10% heat-inactivated donor bovine serum (Invitrogen), 2 mM glutamine, 100 U/ml penicillin and 100 μg/ml streptomycin.
The ΦNX ecotropic packaging cell line was transfected using standard Lipofectamine 2000 protocols. Viral supernatants were harvested 48 hours, post transfection, filtered and concentrated 10-fold using Amicon Ultra centrifugal filter device with a 100kDa cutoff. NIH 3T3 cells were incubated with concentrated retroviral supernatants supplemented with 4 μg/ml polybrene for 4 hours at 37° C. Cells were washed once with PBS and cultured in growth media for 24-36 hours to allow for viral integration.
The transduced NIH3T3 cells were subjected to analysis using fluorescence-activated cell sorting (FACS) to screen the libraries of PDE5A mutants. 24 hours prior to analysis, transduced NIH3T3 cells were plated at 1×10^5 cells per well of a 12-well plate. Cells were removed from the plate using PBS and 2 mM EDTA, washed once with PBS, and resuspended in 200 μL, PBS. FACS analysis was performed on instruments at the Stanford Shared FACS Facility with 10,000 events represented.
To identify destabilizing domains that are responsive to the PDE5A ligand, Sildenafil, a cell-based screening assay was employed in which the fluorescence of green fluorescent protein derived from Aequorea coerulescens (AcGFP) served as an indicator of PDE5A stability. A library based on the PDE5A catalytic domain sequences was generated using error prone PCR and then cloned in-frame in front of AcGFP. A Moloney murine leukemia retroviral expression was used to stably integrate this library of PDE5A-AcGFP fusions into NIH-3T3 fibroblasts, and the transduced cells were subjected to three rounds of sorting using flow cytometry. In the first round, cells were treated with 10 μM of PDE5A ligand, Sildenafil for 16-24 before analysis. Fluorescent cells were collected and further cultured in the absence of ligand for 60 hours.
A library of AcGFP-PDE5A fusions i.e., C-terminal PDE5A mutants was screened using the cell-based screening assay described previously to identify C-terminal destabilizing domains. […] Identified candidates were subjected to further characterization by FACS. Cells were split into two treatment groups and incubated with either Sildenafil (10 μM) or vehicle alone for 24 hours. Cells that were mock transduced or transduced with the wild-type PDE5A construct were also included in the analysis. The stabilization ratio was calculated as the fold change in GFP intensity of the AcGFP-PDE5A construct in Sildenafil treated sample compared to vehicle alone treated sample. The results are presented in Table 2 where the C terminal PDE5A mutants are denoted as PDE5AC.
Residue D764 was identified as a mutational hotspot from sequence analysis. PDE5AC (#41) was engineered with either D764N or D764G mutation via site-directed mutagenesis. PDE5AC (#41) +D764N comprises the amino acid sequence of SEQ ID NO. 53 (encoded by SEQ ID NO. 54) and PDE5AC (#41) +D764G comprises the amino acid sequence of SEQ ID NO. 55 (encoded by SEQ ID NO. 56). AcGFP-PDE5A variants were evaluated for Sildenafil dependent stabilization via FACS as described previously. Results from FACS analysis are presented in Table 4 where the C terminal PDE5A mutants are denoted as PDE5AC. The stabilization ratio was calculated as the fold change in GFP intensity of the AcGFP-PDE5A construct in Sildenafil treated sample compared to vehicle alone treated sample.
Extended versions of human PDE5A that included residues in addition to catalytic domain (residues 535-860 of SEQ ID NO. 1) with Q589R polymorphism (SEQ ID NO. 11) were evaluated for use as C-terminal destabilizing domains. Three extended PDE5A sequences were tested that consisted of residues 535-875 of SEQ ID NO. 1 with Q589R polymorphism (SEQ ID NO. 13); residues 466-875 of SEQ ID NO. 1 with Q589R polymorphism (SEQ ID NO. 15); or residues 420-875 of SEQ ID NO. […]

[2] = tested on: NIH3T3 cells expressing AcGFP-PDE5A variants; assay: Sildenafil dose dependency (FACS, percentage of max MFI); assay type: cell-based, mouse; conditions: Sildenafil 0.003 μM to 30 μM, read-out: half maximal effective concentration or EC50
Method: NIH3T3 cells expressing AcGFP-PDE5A variants were incubated with varying concentrations of Sildenafil ranging from 0.003 μM to 30 μM. The stability of PDE5A mutants was measured using FACS and mean fluorescence intensity (MFI) of GFP was calculated. […] Percentage of max MFI (%) was calculated as the ratio of the MFI at a ligand concentration compared to the maximum MFI. Percentage of max MFI was plotted against the concentration of Sildenafil presented in a log scale. Titration curves of PDE5AC (#2) and PDE5AC (#41) are presented in FIG. 4A and FIG. 4B, respectively. […] The half maximal effective concentration or EC50 was approximately 0.5 μM for PDE5AC (#2) and 2 μM for PDE5AC (#41).

[3] = tested on: NIH3T3 cells expressing AcGFP-PDE5A fusions; assay: Immunoblot analysis of AcGFP-PDE5A fusions (anti-XFP / anti-HA); assay type: cell-based, mouse; conditions: 10 μM Sildenafil or vehicle alone, 24 hours
Method: Identified PDE5A mutants were further validated using immunoblot analysis. NIH3T3 cells expressing AcGFP-PDE5A fusions were incubated with 10 μM Sildenafil or vehicle alone for 24 hours and the stability of PDE5A mutants was evaluated at the protein level. Cell lysates obtained from transduced NIH3T3 cells were immunoblotted using the anti-XFP antibody (1:3000) at 4° C. overnight. Samples were also immunoblotted with anti-GAPDH antibody (1:10000) to ensure uniform protein loading. Samples were then incubated with secondary anti-mouse antibody (1:3000) at room temperature for 1 hour, followed by visualization using appropriate methods. […] The difference in band intensity recapitulates the pattern from the FACS analysis.
A hemagglutinin (HA) sequence (SEQ ID NO. 74; encoded by SEQ ID NO. 75) was cloned in-frame at either the 5′- or 3′-ends of the PDE5A mutant sequence from PDE5AC (#41). The construct further included AcGFP (amino acids 1-239 of WT) at the N terminus (SEQ ID NO. 76, encoded by SEQ ID NO. 77) and an EF linker/EcoRI restriction site (GAATTC). […] The effect of the HA sequence on ligand dependent stabilization was evaluated via immunoblot analysis. […] As show in FIG. 3, HA-tagged fusion protein expression detected with either anti-XFP antibody or anti-HA antibody was nearly identical. […]

[4] = tested on: AcGFP; assay: Comparison of N-terminal and C-terminal PDE5A derived DD (FACS); assay type: cell-based, human; conditions: 24 hours
Method: The ability of PDE5A derived DDs to destabilize a protein of interest may depend on the position whether the DD is appended to the N terminus or the C terminus of the protein of interest. Mutant #2, and mutant #41 were appended either to the N terminus or C terminus of AcGFP and analyzed using the cell-based screening assay described previously to identify destabilizing domains. Cells were split into two treatment groups and incubated with either Sildenafil (10 μM) or vehicle alone for 24 hours. Cells that were mock transduced or transduced with the N terminal fused wild-type PDE5A or PDE5AN (#40) constructs were also included in the analysis. The results are presented in Table 8 where the C terminal PDE5A mutants are denoted as PDE5AC and N terminal PDE5A mutants are denoted as PDE5AN.
The stabilization ratio was calculated as the fold change in GFP intensity of the AcGFP-PDE5A construct in Sildenafil treated sample compared to vehicle alone treated sample.

[5] = Table 2, Sildenafil (10 μM) +, 24 hours
[6] = Table 2, Sildenafil (10 μM) −, vehicle alone, 24 hours
[7] = Table 4 (D764 mutations), Sildenafil (10 μM) +
[8] = Table 4 (D764 mutations), Sildenafil (10 μM) −

| Substance | Mean Fluorescence intensity [1, 5] | Mean Fluorescence intensity [1, 6] | Mean Fluorescence intensity [1, 7] | Mean Fluorescence intensity [1, 8] | Stabilization ratio [1] | EC50 [2] [nM] | Fusion protein expression / ligand dependent stabilization by immunoblot [3] | Mean FITC-A DMSO [4] | Mean FITC-A Sildenafil (10 μM) [4] |
| --- | --- | --- | --- | --- | --- | --- | --- | --- | --- |
| PDE5AC (#2): AcGFP fused to C-terminal DD 535-860 of PDE5A (Q589R, D687A, D764N, S815C), SEQ ID NO. 23 | 6577 | 1023 | 3483 | 671 | 5.2 | ~500 | most drastic difference in the intensity of the bands | 1342 | 5030 |
| PDE5AC (#41): AcGFP fused to C-terminal DD 535-860 of PDE5A (F561L, Q589R, K604E, D724N, L797F), SEQ ID NO. 27 | 6115 | 1000 | 4647 | 734 | 6.3 | ~2000 | most drastic difference in the intensity of the bands | 1443 | 4620 |
